Reference: article PMC8367633 (Journal of Applied Glycoscience, 2020)

Target: T1, Blon_0248 (Bifidobacterium longum, UniProt A0ACD7UNL5)
T1 sequence (A0ACD7UNL5 1-449): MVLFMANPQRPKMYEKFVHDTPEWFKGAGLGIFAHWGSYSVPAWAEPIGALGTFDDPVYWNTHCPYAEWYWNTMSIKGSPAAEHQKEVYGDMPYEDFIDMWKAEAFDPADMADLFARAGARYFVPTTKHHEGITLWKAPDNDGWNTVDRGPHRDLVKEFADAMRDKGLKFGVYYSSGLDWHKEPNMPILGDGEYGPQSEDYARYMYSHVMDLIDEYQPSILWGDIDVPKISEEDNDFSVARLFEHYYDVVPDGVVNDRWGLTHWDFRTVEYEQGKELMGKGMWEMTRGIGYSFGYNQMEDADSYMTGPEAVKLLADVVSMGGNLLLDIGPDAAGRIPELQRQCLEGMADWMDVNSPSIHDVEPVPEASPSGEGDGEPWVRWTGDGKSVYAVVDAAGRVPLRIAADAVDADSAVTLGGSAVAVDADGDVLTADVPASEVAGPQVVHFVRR
Experiment: pNP release, absorbance […] nm
Format: biochemical
Conditions: 50 mM sodium acetate pH 6.0, 37 °C

C[C@@H]1O[C@@H](Oc2ccc([N+](=O)[O-])cc2)[C@@H](O)[C@H](O)[C@@H]1O [pNP-α-Fuc]
pNP release, absorbance 405 nm: Both proteins specifically hydrolyzed pNP-α-Fuc, but not any of the other pNP-glycosides tested
